Data reported in patent publication US20250387375A1, “SOFALCONE DERIVATIVES AND MEDICAL USE THEREOF” (KAOHSIUNG MEDICAL UNIVERSITY, priority 2024, published 2025).

Assays:
[1] = tested on: human platelet suspension (platelet aggregation caused by TxA2 agonist U46619); assay: Platelet aggregation reaction test, U46619-induced; assay type: cell-based
Experimental: (§1) Blood samples were collected from healthy donors, and acid-citrate-dextrose (ACD) solution was used as an anticoagulant. The blood samples were centrifuged to obtain platelets, and residual plasma was removed by washing to prepare platelet suspension.
(§2) In the experimental method, a platelet aggregometer (Chrono-Log Co., Havertown, PA, USA) was used for tests. The compound to be tested was added to the platelet suspension and reacted for 3 minutes at 37° C. with stirring (1200 rpm). Then, platelet stimulator U46619 or collagen was added to initiate platelet aggregation, and the test time was 5 minutes. The principle of the platelet aggregation test was: when platelets were stimulated to induce aggregation reaction, the light transmission of the platelet suspension would increase; by calculating changes in light transmission of the platelet suspension before and after being stimulated, the percentage of platelet aggregation could be obtained.

[2] = tested on: human platelet suspension (platelet aggregation caused by collagen); assay: Platelet aggregation reaction test, collagen-induced; assay type: cell-based; conditions: read-out: Collagen IC 50
Experimental: as §1, §2

| SMILES | IC50 [1] [µM] | IC50 [2] [µM] |
| --- | --- | --- |
| CC(C)=CCCC(C)=CCOc1ccc(C(=O)C=Cc2ccc(OCC=C(C)C)cc2)c(OCCCC(=O)O)c1 [Compound 5] | 4.45 | 6.28 |
| CC(C)=CCOc1ccc(/C=C/C(=O)c2ccc(F)cc2OCCCC(=O)O)cc1 [Compound 9] | 5.44 | 5.14 |
| CC(C)=CCCC(C)=CCOc1ccc(C=CC(=O)c2ccc(F)cc2OCCCC(=O)O)cc1 [Compound 10] | 5.24 | 52.5 |
| O=C(O)CCCCCOc1cc(F)ccc1C(=O)/C=C/c1ccccc1 [Compound 11] | 54.4 | 5.38 |
| CC(C)=CCOc1ccc(C(=O)/C=C/c2cccc(F)c2)c(OCCCC(=O)O)c1 [Compound 14] | 5.18 | 7.05 |
| COc1ccc(/C=C/C(=O)c2ccc(OC)cc2OCC(=O)O)cc1 [Compound 18] | > 100 | 96.2 |
| CC(C)=CCOc1ccc(C(=O)/C=C/c2ccccc2OCC=C(C)C)c(OCC(=O)O)c1 [Compound 19] | 20.3 | 15.2 |
| CC(C)=CCOc1cccc(/C=C/C(=O)c2ccc(OCC=C(C)C)cc2OCC(=O)O)c1 [Compound 20] | 20.6 | 28.3 |
| CC(C)=CCOc1ccc(C(=O)/C=C/c2ccc(OCC=C(C)C)c(OCC=C(C)C)c2)c(OCC(=O)O)c1 [Compound 21] | 14.4 | 29.7 |
| CC(C)=CCOc1ccc(C(=O)/C=C/c2ccccc2)c(OCC(=O)O)c1 [Compound 22] | 43.2 | 12.8 |
| CC(C)=CCOc1ccc(C(=O)/C=C/c2ccc(F)cc2)c(OCC(=O)O)c1 [Compound 23] | 22.2 | 33.5 |
| CC(C)=CCOc1ccc(C(=O)/C=C/c2ccc(Cl)cc2)c(OCC(=O)O)c1 [Compound 24] | 43.4 | 67.6 |
| CC(C)=CCOc1ccc(C(=O)/C=C/c2ccc([N+](=O)[O-])cc2)c(OCC(=O)O)c1 [Compound 25] | 43.8 | 49.2 |
| CC(=O)Nc1ccc(/C=C/C(=O)c2ccc(OCC=C(C)C)cc2OCC(=O)O)cc1 [Compound 26] | 15.7 | 40.8 |
| CC(C)=CCOc1ccc(/C=C/C(=O)c2ccccc2OCC(=O)O)cc1 [Compound 27] | 5.07 | 18.8 |
| O=C(O)COc1cc(F)ccc1C(=O)C=Cc1ccccc1 [Compound 31] | 4.4 | 7.1 |
| CC(C)=CCOc1ccc(C=CC(=O)c2ccc(OCC=C(C)C)cc2OCCCCCC(=O)O)cc1 [Compound 32] | 5.85 | 12.8 |
| O=C(O)CCCOc1ccccc1C(=O)C=Cc1ccccc1 [Compound 34] | 9.5 | 6.4 |
| O=C(O)COc1ccccc1C(=O)C=Cc1ccccc1 [Compound 35] | 6.58 | 7.91 |
| CCOC(=O)COc1cc(O)ccc1C(=O)C=Cc1cccc(O)c1 [Compound 40] | 25.9 | 10.3 |
| CCOC(=O)COc1cc(O)ccc1C(=O)C=Cc1ccc(O)c(O)c1 [Compound 41] | 34.9 | 15.2 |
| CCOC(=O)COc1ccccc1C(=O)C=Cc1ccc(O)cc1 [Compound 42] | 38.7 | 1.59 |
| CCOC(=O)COc1cc(O)ccc1C(=O)C=Cc1ccc(F)cc1 [Compound 43] | 55.6 | 2.26 |
| CCOC(=O)COc1cc(O)ccc1C(=O)C=Cc1ccc(Cl)cc1 [Compound 44] | > 100 | 8.92 |

| SMILES | IC50 [1] [µM] | IC50 [2] [µM] |
| --- | --- | --- |
| CCOC(=O)COc1cc(O)ccc1C(=O)C=Cc1ccc([N+](=O)[O-])cc1 [Compound 45] | > 20 | > 20 |
| CCOC(=O)COc1ccccc1C(=O)C=Cc1ccc(N)cc1 [Compound 46] | 64 | 5.08 |
| CCOC(=O)COc1ccccc1C(=O)C=Cc1ccc(O)cc1 [Compound 47] | 35.2 | 16.4 |
| CCOC(=O)COc1cc(OC)ccc1C(=O)C=Cc1ccc(OC)cc1 [Compound 48] | > 100 | > 100 |
| O=C(O)CCCCCOc1ccccc1C(=O)C=Cc1ccccn1 [Compound 53] | 50.4 | 44.4 |
| O=C(O)CCCCCOc1ccccc1C(=O)C=Cc1cccnc1 [Compound 54] | 5.45 | 22.1 |
| CC(C)=CCOc1ccc(C(=O)C=Cc2cccs2)c(OCCCCCC(=O)O)c1 [Compound 55] | 5.37 | 4.4 |
| O=C(O)COc1ccccc1C(=O)C=Cc1ccco1 [Compound 56] | 72.2 | 38.3 |
| O=C(O)COc1ccccc1C(=O)C=Cc1cccs1 [Compound 57] | 71.5 | 15.5 |
| O=C(O)COc1ccccc1C(=O)C=Cc1ccc(Br)s1 [Compound 58] | 72.6 | 40.9 |
| O=C(O)COc1ccccc1C(=O)C=Cc1ccccn1 [Compound 59] | 72.1 | 33.8 |
| O=C(O)COc1ccccc1C(=O)C=Cc1cccnc1 [Compound 60] | 29.3 | 39.8 |
| CCOC(=O)CCCCCOc1ccccc1C(=O)C=Cc1ccccn1 [Compound 63] | 4.57 | 6.05 |
| CCOC(=O)CCCOc1cc(OCC=C(C)C)ccc1C(=O)C=Cc1cccs1 [Compound 64] | 5.87 | 3.85 |
| CCOC(=O)COc1ccccc1C(=O)C=Cc1ccco1 [Compound 65] | 78.4 | 3.13 |
| CCOC(=O)COc1ccccc1C(=O)C=Cc1cccs1 [Compound 66] | 70.2 | 2.86 |
| CCOC(=O)COc1ccccc1C(=O)C=Cc1ccc(Br)s1 [Compound 67] | > 100 | 5.35 |
| COC(=O)COc1cc(OCC=C(C)C)ccc1C(=O)C=Cc1ccc(OCC=C(C)C)cc1 [Compound 68] | > 100 | > 100 |
| COC(=O)COc1cc(O)ccc1C(=O)C=Cc1ccc(O)cc1 [Compound 69] | 27.8 | 3.42 |
| O=C(O)CCCOc1cc(O)ccc1C(=O)C=Cc1ccc(O)cc1 [Compound 70] | 5.43 | 6.55 |
| O=C(O)COc1cc(O)ccc1C(=O)C=Cc1ccc(O)cc1 [Compound 71] | 65.4 | > 100 |
| COC(=O)COc1cc(O)ccc1C(=O)CCc1ccc(O)cc1 [Compound 72] | 47.6 | 11.6 |
| COC(=O)CCCOc1cc(OCC=C(C)C)ccc1C(=O)CCc1ccc(OCC=C(C)C)cc1 [Compound 73] | 10.7 | 62.9 |

The next compounds have a lower IC50 [1] than those just listed; values first:

| IC50 [1] [µM] | IC50 [2] [µM] | SMILES |
| --- | --- | --- |
| 3.66 | 44.4 | CC(C)=CCCC(C)=CCOc1ccc(C=CC(=O)c2ccc(OCC=C(C)CCC=C(C)C)cc2OCCCC(=O)O)cc1 [Compound 6] |
| 2.78 | 4.24 | CCOC(=O)CCCOc1ccccc1C(=O)C=Cc1ccc(OCC=C(C)CCC=C(C)C)cc1 [Compound 8] |
| 2.15 | 12.2 | O=C(O)COc1cc(F)ccc1C(=O)C=Cc1ccc(F)cc1 [Compound 33] |
| 1.8 | 4.22 | O=C(O)COc1ccccc1C(=O)/C=C/c1ccc(F)cc1 [Compound 28] |
| 1.56 | 7.88 | O=C(O)COc1cc(F)ccc1C(=O)/C=C/c1ccccc1 [Compound 29] |
| 0.57 | 0.33 | O=C(O)CCCCCOc1ccccc1C(=O)CCc1cccc(F)c1 [Compound 50] |
| 0.57 | 0.62 | O=C(O)CCCCCOc1ccccc1C(=O)C=Cc1cccs1 [Compound 51] |
| 0.54 | 0.56 | CCOC(=O)CCCCCOc1ccccc1C(=O)C=Cc1cccs1 [Compound 61] |
| 0.51 | 0.07 | O=C(O)CCCCCOc1ccccc1C(=O)/C=C/c1ccccc1F [Compound 1] |
| 0.51 | 0.65 | CC(C)=CCOc1ccc(C(=O)/C=C/c2ccccc2F)c(OCCCC(=O)O)c1 [Compound 13] |
| 0.5 | 0.43 | O=C(O)CCCCCOc1cc(F)ccc1C(=O)/C=C/c1ccc(F)cc1 [Compound 12] |
| 0.5 | 4.85 | O=C(O)CCCCCOc1ccccc1C(=O)CCc1ccccc1 [Compound 49] |
| 0.5 | 0.56 | O=C(O)CCCCCOc1ccccc1C(=O)C=Cc1ccco1 [Compound 52] |
| 0.49 | 4.03 | CC(C)=CCCC(C)=CCOc1ccc(C(=O)C=Cc2ccccc2)c(OCCCC(=O)O)c1 [Compound 7] |
| 0.48 | 0.58 | CCOC(=O)CCCCCOc1ccccc1C(=O)C=Cc1ccco1 [Compound 62] |
| 0.37 | 0.62 | O=C(O)CCCCCOc1cc(F)ccc1C(=O)/C=C/c1ccc(F)cc1 [Compound 16] |
| 0.23 | 1.58 | CC(C)=CCOc1ccc(C=CC(=O)c2ccc(OCC=C(C)C)cc2OCCCCC(=O)O)cc1 [Compound 37] |
| 0.19 | 0.13 | O=C(O)CCCCCOc1ccccc1C(=O)C=Cc1ccccc1 [Compound 36] |
| 0.05 | 0.05 | O=C(O)CCCCCOc1ccccc1C(=O)/C=C/c1cccc(F)c1 [Compound 2] |
| 0.05 | 0.06 | CC(C)=CCCC(C)=CCOc1ccc(C=CC(=O)c2ccc(OCC=C(C)CCC=C(C)C)cc2OCCCC(=O)O)cc1 [Compound 4] |
| 0.05 | 0.35 | CC(C)=CCOc1ccc(C(=O)/C=C/c2ccc(F)cc2)c(OCCCC(=O)O)c1 [Compound 15] |
| 0.05 | 0.07 | CCOC(=O)CCCCCOc1ccccc1C(=O)C=Cc1cccc(F)c1 [Compound 39] |
| 0.03 | 0.07 | CCOC(=O)CCCCCOc1ccccc1C(=O)C=Cc1ccccc1F [Compound 38] |
